Reference: patent publication US11660054B2, “Medical diagnostic and treatment systems and their methods of use” (Biogen MA Inc., priority 2016, dated 2023)

Test system: β-amyloid neuritic plaque
Test: Radiometer cap detection of head radiation signals after IV amyloid tracer, concurrent PET
Format: in vivo, human
Experimental: Tests were conducted using a series of radiometers positioned around subjects heads and a standard PET camera using the amyloid tracer ^18F-fluorbetapir in subjects with probable Alzheimer's disease (AD subjects) and healthy control volunteers (HC). ^18F-fluorbetapir is a radioactive diagnostic agent for positron emission tomography (PET) imaging of the brain to estimate β-amyloid neuritic plaque density in adult patients with cognitive impairment who are being evaluated for AD. PET imaging targeting β-amyloid neuritic plaque deposition has already begun playing a role in identifying individuals very early in the course of AD and monitoring progression of the disease over the course of the treatment with investigational therapeutics.
During testing, ^18F-fluorbetpir was administered intravenously as a bolus injection followed by a saline flush. […] Each subject received a single injection of the radioligand with a dose of no more than 10 mCi in a maximum volume of 10 mL.
The device included a cap fitted with up to 5 detectors at various 10-20 EEG positions which was placed on the subject's head. The subjects were asked to avoid any movements of the head and to remain immobilized as much as possible. Additional detectors were secured to one ankle and the chin to obtain an indirect measure of the activity in the blood, and to monitor activity in the head respectively. […] Detector specific count rates and total counts were measured continuously for up to 3 hours. The count rate and total counts were compared in the AD subjects and HC subjects to extrapolate qualitative and quantitative pattern differences. […]
For processing purposes, detected radiation signals were decay corrected to the time of injection. The counts were recorded in 4 second intervals, which were then median filtered using a 2 minute window. […]
To quantify this, a constrained bi-exponential model was fit to the 10-65 minute period of each of the detectors, as well as the sum of the brain signals (excluding the chin, ankle and tip top detectors). […]

Q: Which results are given for CNc1ccc(/C=C/c2ccc(OCCOCCOCCF)nc2)cc1 [^18F-fluorbetapir]?
A: ankle detector signal after injection (ankle detector, all subjects, IV bolus): steadily climbed; alpha phase of bi-exponential fit, healthy versus AD subjects (bi-exponential fit of 10-65 minute period, alpha phase limited to 5-30 min half-life): faster alpha phase; initial washout of signal in healthy subjects versus AD subjects (head detectors, healthy subjects): faster initial washout
